37 molecules from patent US12421212B2, “Substituted benzenecarboxamides as IL-17A modulators” (DiCE Alpha, Inc., priority 2019, dated 2025) can be followed below.

SMILES strings stand for the structures.

This assay addresses T1, IL-17A/A (Homo sapiens, UniProt Q16552).
T1 construct: purchased Genscript Z03228
T1 sequence (Q16552 24-155): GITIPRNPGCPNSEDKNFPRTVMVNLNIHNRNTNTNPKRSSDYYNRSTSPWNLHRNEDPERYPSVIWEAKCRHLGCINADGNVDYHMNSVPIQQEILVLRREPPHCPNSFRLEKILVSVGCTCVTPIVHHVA
The assay can be described thus: IL-17A/A HEK-Blue Cell Assay. The format is cell-based. As to conditions: HEK-Blue IL-17A reporter cell line, SEAP readout at A630, 20 hours incubation with IL-17A/A, top concentration 10 uM, 1 uM or 0.3 uM; for IC50: read-out: IL-17A/A inhibition (pIC50) (converted). As for the experimental part:
The HEK-Blue IL-17A reporter cell line (Fisher #NC1408637) was used for cell-based IL-17A/A inhibition assays. Cells were grown and prepared for assays according to the manufacturer's instructions. This cell line consists of HEK 293 cells that were designed to expressed IL-17RA, IL-17RC, and the ActI adapter molecule, the combination of which, when stimulated by IL-17A/A activates a NFκB promoter and drives expression of a recombinant Secreted Alkaline Phosphatase (SEAP) geneprotein. Media from the cells is then added to a development reagent (Quanti-Blue Substrate, Fisher #NC9711613), and read at A630.
Compounds were titrated in DMSO, with a top final compound concentration of 10 uM, 1 uM, or 0.3 uM, and added to the cells immediately before adding IL-17A/A (Genscript #Z03228). The cells, compound, and IL-17A/A were then incubated for 20 hours before media was removed for SEAP analysis. The resulting inhibition curve was then analyzed using Graphpad Prism 7.0, and IC50 values were determined using a 4-parameter nonlinear fit. DMSO was added to a universal final concentration of 0.1% to optimize background.

For the molecule `CCC(=O)N[C@@H](C(=O)N1CCN(C)CC1)[C@@H](C)c1ccc(NC(=O)C(NC(=O)c2nonc2CC)C(CC)c2ccc(F)cc2)c(F)c1` (single isomer, unassigned) [Compound 557], the IC50 is 100 to 10000 nM.

As for `CCC(=O)N[C@@H](C(=O)N1CCN(C)CC1)[C@@H](C)c1ccc(NC(=O)C(NC(=O)c2nonc2CC)C(C)C2CCC(F)(F)CC2)c(F)c1` (single isomer, unassigned) [Compound 590], the “IL-17A/A inhibition (pIC50)” value was “X3b (compounds were evaluated up to 0.3 uM and inhibited activity at 0.3 uM by less than 20%)”.

For `CCc1nonc1C(=O)N[C@H](C(=O)Nc1ccc([C@H](C)[C@@H](NC(=O)C(C)(F)F)C(=O)N2CCN(C)[C@H](C)C2)cc1F)[C@H]1CC[C@H](C)CC1` [Compound 503], the IC50 was 10 to 100 nM.

In the case of `CCn1nccc1C(=O)N[C@H](C(=O)Nc1ccc([C@H](C)[C@@H](NC(=O)C2CC2)C(=O)N2CCN(C)CC2)cc1F)C1CCCCCC1` [Compound 535], the IC50 is under 10 nM.

For `CCC(=O)N[C@@H](C(=O)N1CCN(C)CC1)[C@@H](C)c1ccc(NC(=O)[C@@H](NC(=O)c2conc2C(C)C)[C@H]2CC[C@H](C)CC2)c(F)c1` [Compound 284], the IC50 is under 10 nM.

In the case of `CCC(=O)N[C@@H](C(=O)N1CCN(C)CC1)[C@@H](C)c1ccc(NC(=O)[C@@H](NC(=O)C(F)(F)c2cccc(C#N)c2)C2CCOCC2)c(F)c1` [Compound 674], the IC50 was 100 to 10000 nM.

As for `CCC(=O)N[C@H](Cc1ccc(NC(=O)[C@H](CCC2CCCCC2)NC(=O)c2ccnn2CC)c(F)c1)C(=O)N1CCN(C)CC1` [Compound 729], the “IL-17A/A inhibition (pIC50)” value is “X2b (compounds were evaluated up to 1 uM and inhibited activity at 1 uM by less than 20%)”.

Regarding `CCC(=O)N[C@H](Cc1ccc(NC(=O)[C@@H](NC(=O)c2nccn2CC)C2CCCCC2)c(F)c1)C(=O)N1CCN(C)CC1` [Compound 772], the “IL-17A/A inhibition (pIC50)” value is “X1a (compounds were evaluated up to 10 uM and did not inhibit activity by >80%, however they showed some activity at 10 uM (less than 80% and more than 20%))”.

As to `CCC(=O)N[C@H](Cc1ccc(NC(=O)[C@@H](NC(=O)c2cnc(C(=O)NC)[nH]2)C2CCCCC2)c(F)c1)C(=O)N1CCN(C)CC1` [Compound 781], the “IL-17A/A inhibition (pIC50)” value was “X1b (compounds were evaluated up to 10 uM and inhibited activity at 10 uM by less than 20%)”.

Consider `CCC(=O)N[C@@H](C(=O)N1CCN(C)CC1)[C@@H](C)c1ccc(NC(=O)[C@@H](NC(=O)C(F)(F)C2CCOCC2)[C@H]2CC[C@H](C)CC2)c(F)c1` [Compound 660], for which the “IL-17A/A inhibition (pIC50)” value is “X3a (compounds were evaluated up to 0.3 uM and did not inhibit activity by >80%, however they showed some activity at 0.3 uM (less than 80% and more than 20%))”.

Turning to `CCn1nccc1C(=O)N[C@H](C(=O)Nc1ccc([C@H](C)[C@@H](NC(=O)c2cnc(C)n2C)C(=O)N2CCN(C)CC2)cc1F)C1CCCCC1` [Compound 678], the IC50 was 100 to 10000 nM.

For the molecule `CCn1nccc1C(=O)N[C@H](C(=O)Nc1ccc([C@H](C)[C@@H](NC(=O)c2cnns2)C(=O)N2CCN(CCO)CC2)cc1F)[C@H]1CC[C@H](C)CC1` [Compound 428], the IC50 was 10 to 100 nM.

As for `CCC(=O)N[C@H](Cc1ccc(NC(=O)[C@@H](NC(=O)c2ccnn2CC(C)C)C2CCCCC2)c(F)c1)C(=O)N1CCN(C)CC1` [Compound 646], the IC50 was 100 to 10000 nM.

`CCC(=O)N[C@@H](C(=O)N1CCN(C)CC1)[C@@H](C)c1ccc(NC(=O)[C@@H](NC(=O)c2ccnn2C2CCCC2)C2CCCCCC2)c(F)c1` [Compound 273]: the IC50 is under 10 nM.

Turning to `CCC(=O)N[C@@H](C(=O)N1CCN(C)CC1)[C@@H](C)c1ccc(NC(=O)[C@@H](NC(=O)c2coc3c2COC3)C2CCCCCC2)c(F)c1` [Compound 266], the IC50 is under 10 nM.

With `C[C@@H](c1ccc(NC(=O)[C@@H](NC(=O)C(F)(F)c2cccc(C#N)c2)C2CCCCC2)c(F)c1)[C@@H](NC(=O)NC1CC1)C(=O)N1CCN(C)CC1` [Compound 316], the IC50 is under 10 nM.

In the case of `CCn1nccc1C(=O)N[C@H](C(=O)Nc1ccc([C@H](C)[C@@H](NC(=O)c2ccc(C)s2)C(=O)N2CCN(C)CC2)cc1F)C1CCCCC1` [Compound 635], the IC50 is 100 to 10000 nM.

As to `CCC(=O)N[C@@H](C(=O)N1CCN(C)CC1)[C@@H](C)c1ccc(NC(=O)[C@@H](NC(=O)c2csc3ncccc23)C2CCCCC2)c(F)c1` [Compound 250], the IC50 is 10 to 100 nM.

On to `CCC(=O)N[C@@H](C(=O)N1CCN(C)CC1)[C@@H](C)c1ccc(NC(=O)[C@@H](NC(=O)c2ccnn2C(C)C)[C@H]2CC[C@H](C)CC2)c(F)c1` [Compound 253], for which the IC50 is under 10 nM.

On to `CCc1nonc1C(=O)N[C@H](C(=O)Nc1ccc([C@H](C)[C@@H](NC(=O)C(C)(C)F)C(=O)N2CCN(C)CC2)cc1F)[C@H]1CC[C@H](C)CC1` [Compound 495], for which the IC50 was 10 to 100 nM.

For `CCC(=O)N[C@@H](C(=O)N1CC(n2ccnc2)C1)[C@@H](C)c1ccc(NC(=O)[C@@H](NC(=O)c2nonc2CC)[C@H]2CC[C@H](C)CC2)c(F)c1` [Compound 580], the “IL-17A/A inhibition (pIC50)” value was “X3a (compounds were evaluated up to 0.3 uM and did not inhibit activity by >80%, however they showed some activity at 0.3 uM (less than 80% and more than 20%))”.

`CCC(=O)N[C@H](Cc1ccc(NC(=O)[C@@H](NC(=O)c2cnc(C(=O)NC)s2)C2CCCCC2)c(F)c1)C(=O)N1CCN(C)CC1` [Compound 699]: the “IL-17A/A inhibition (pIC50)” value was “X2b (compounds were evaluated up to 1 uM and inhibited activity at 1 uM by less than 20%)”.

As for `CCC(=O)N[C@@H](C(=O)N1CCN(C)CC1)[C@@H](C)c1ccc(NC(=O)C(NC(=O)c2ccnn2CC)C(C)c2ccccc2Cl)c(F)c1` (stereo partly shown) [Compound 519], the “IL-17A/A inhibition (pIC50)” value is “X3a (compounds were evaluated up to 0.3 uM and did not inhibit activity by >80%, however they showed some activity at 0.3 uM (less than 80% and more than 20%))”.

Consider `CCn1nccc1C(=O)N[C@H](C(=O)Nc1ccc([C@H](C)[C@@H](NC(=O)OC2CC2)C(=O)N2CCN(C)CC2)cc1F)[C@H]1CC[C@H](C)CC1` [Compound 484], for which the IC50 was 10 to 100 nM.

With `CCC(=O)N[C@@H](C(=O)N1CCN(C)CC1)[C@@H](C)c1ccc(NC(=O)[C@@H](NC(=O)c2csc3ccccc23)C2CCCCCC2)c(F)c1` [Compound 259], the IC50 was under 10 nM.

As to `CCc1nonc1C(=O)N[C@H](C(=O)Nc1ccc([C@H](C)C(NC(=O)C(C)F)C(=O)N2CCN(C)[C@H](C)C2)cc1F)[C@H]1CC[C@H](C)CC1` (single isomer, unassigned) [Compound 599], the IC50 is under 10 nM.

On to `CCc1nonc1C(=O)N[C@H](C(=O)Nc1ccc([C@H](C)[C@@H](NC(=O)C(C)C)C(=O)N2CCN(C)CC2)cc1F)[C@H]1CC[C@H](C)CC1` [Compound 494], for which the IC50 is under 10 nM.

Consider `CCC(=O)N[C@@H](C(=O)N1CCN(C)CC1)[C@@H](C)c1ccc(NC(=O)[C@@H](NC(=O)c2ccoc2C(C)C)C2CCCCCC2)c(F)c1` [Compound 272], for which the IC50 is under 10 nM.

Take `CCc1nonc1C(=O)N[C@H](C(=O)Nc1ccc([C@H](C)[C@@H](NC(=O)N(C)C2CCC2)C(=O)N2CCN(C)CC2)cc1F)[C@H]1CC[C@H](C)CC1` [Compound 516]: the IC50 is under 10 nM.

As to `C[C@@H](c1ccc(NC(=O)[C@@H](NC(=O)c2cnon2)[C@H]2CC[C@H](C)CC2)c(F)c1)[C@@H](NC(=O)c1cnns1)C(=O)N1CCN(C)CC1` [Compound 548], the “IL-17A/A inhibition (pIC50)” value was “X2b (compounds were evaluated up to 1 uM and inhibited activity at 1 uM by less than 20%)”.

`CCC(=O)N[C@H](Cc1ccc(NC(=O)[C@@H](NC(=O)C(F)(F)c2ccc(Cl)cc2)C2CCCCC2)c(F)c1)C(=O)N1CCN(C)CC1` [Compound 211]: the IC50 is 100 to 10000 nM.

For the molecule `CCn1nccc1C(=O)N[C@H](C(=O)Nc1ccc([C@H](C)[C@@H](NC(=O)N(C)C2CC2)C(=O)N2CCN(C)CC2)cc1F)[C@H]1CC[C@H](C)CC1` [Compound 488], the IC50 is under 10 nM.

Regarding `CCC(=O)NC(C(=O)N1CCN(Cc2ccccc2)CC1)[C@@H](C)c1ccc(NC(=O)[C@@H](NC(=O)c2ccnn2CC)[C@H]2CC[C@H](C)CC2)c(F)c1` (stereo partly shown) [Compound 367], the IC50 was 10 to 100 nM.

Take `CCC(=O)N[C@@H](C(=O)N1CCN(C)CC1)[C@@H](C)c1ccc(NC(=O)[C@@H](NC(=O)c2ccnn2CC)C2CCOCC2)c(F)c1` [Compound 747]: the “IL-17A/A inhibition (pIC50)” value was “X2b (compounds were evaluated up to 1 uM and inhibited activity at 1 uM by less than 20%)”.

In the case of `CCn1nccc1C(=O)N[C@H](C(=O)Nc1ccc([C@H](C)[C@@H](NC(=O)NC2CC2)C(=O)N2CCN(C)CC2)cc1F)C1CCCCC1` [Compound 314], the IC50 is 10 to 100 nM.

Turning to `CCc1nonc1C(=O)N[C@H](C(=O)Nc1ccc([C@H](C)[C@@H](NC(=O)c2cccnc2OC)C(=O)N2CCN(C)CC2)cc1F)[C@H]1CC[C@H](C)CC1` [Compound 576], the IC50 is 10 to 100 nM.

With `CCC(=O)N[C@H](Cc1ccc(NC(=O)[C@H](Cc2ccccc2Cl)NC(=O)C(F)(F)c2ccc(OC)nc2)c(F)c1)C(=O)N1CCN(C)CC1` [Compound 731], the “IL-17A/A inhibition (pIC50)” value was “X2b (compounds were evaluated up to 1 uM and inhibited activity at 1 uM by less than 20%)”.
